{"source": "patent US20250375417A1", "about": "“OREXIN RECEPTOR 2 (OX2R) AGONIST FOR USE IN NARCOLEPSY TYPE 1 (NT1)” (TAKEDA PHARMACEUTICAL COMPANY LIMITED, priority 2024, published 2025)", "format_in_all_cases": "in vivo, human", "key": {"[1]": {"test_system": "participants with NT1", "assay": "Functional Impacts of Narcolepsy Instrument (FINI), Phase 2 NT1 trial", "settings": "range across Compound A doses", "from_the_text": "The functional impact of NT1 on subjects can be assessed by the FINI. The FINI is a fit-for-purpose 28-item instrument developed by the sponsor to ensure easy to interpret concepts that are meaningful to narcolepsy patients. The FINI measures the functional impacts of narcolepsy across 6 domains: Tiredness (items 1-7), Cognitive Functioning (items 8-12), Cataplexy (items 13-17), Social Activities (items 18-21), Everyday Activities (items 22-25), and Everyday Responsibilities (items 26-28). Each item asks about the impact that narcolepsy has had on their daily functioning during the past 7 days, and scored from 0-4, where 0 indicates the best health and 4 the worst. There is no total score; for each participant, an average score is calculated for each domain, if at least half the items in the domain have been answered:\nSum of responses in the domain/Number of completed items in the domain\nThe average domain score is then standardized to a 0-100 scale, where 0 indicates the best health and 100 the worst health. A decrease from baseline would thus indicate improved health:\nStandardized score=average score/4×100\nAn analysis of exploratory data from the trial investigated the effect of Compound A on functioning and HRQoL in individuals with ICSD-3 confirmed NT1. Participants aged 18-70 years (Japan: 16-70), with an Epworth Sleepiness Scale (ESS) score>12, and ≥4 partial/complete episodes of cataplexy/week were eligible for inclusion. Participants were randomized to oral Compound A (0.5 mg twice 3 hours apart, 2 mg twice 3 hours apart, 2 mg then 5 mg 3 hours later, or 7 mg once-daily), or placebo. Exploratory endpoints included 3 domains (social activities, everyday activities, and everyday responsibilities) from the 6-domain Functional Impacts of Narcolepsy Instrument (FINI) in which each item uses 5-point Likert scale and higher standardized domain scores (0-100) indicate more severe impact; the 36-item short-form (SF-36); and the EuroQoL 5-Dimensions 5-Levels (EQ-5D-5L) questionnaire."}, "[2]": {"test_system": "participants with NT1", "assay": "SF-36 and EQ-5D-5L health-related quality of life, Phase 2 NT1 trial", "from_the_text": "Health conditions such as mobility, self-care, usual activities, pain/discomfort, and/or anxiety/depression as related to NT1 can be assessed by the EQ-5D-5L assessment. The EQ-5D-5L is a standardized 5-item measure of health status developed by the EuroQol Group to provide a simple, generic measure of health for clinical and economic appraisal that has been used in a wide range of health conditions and treatments (Herdman et al. 2011; Janssen et al. 2013). The EQ-5D-5L consists of a descriptive system and the EuroQol visual analog scale (VAS). The descriptive system comprises 5 dimensions: mobility, self-care, usual activities, pain/discomfort, and anxiety/depression. The EuroQol VAS records the participant's self-rated health on a vertical VAS. This can be used as a quantitative measure of health outcome that reflects the participant's own judgment. The scores on these 5 dimensions can be presented as a health profile or can be converted to a single summary index number (utility) reflecting preferability compared with other health profiles.\nPatient health self-assessments can be measured by the SF-36. The SF-36 is a 36-item, participant-reported survey of participant health. […] Similar to each scale, the component scores are also positively scored so that higher scores represent better health-related quality-of-life. […]"}, "[3]": {"test_system": "participants with NT1", "assay": "Epworth Sleepiness Scale (ESS), Phase 2 NT1 trial", "from_the_text": "In some aspects of the methods described herein, the subject experiences a lower Epworth Sleepiness Scale (ESS) total score after a treatment period compared to an untreated subject. The ESS is a subjective, self-administered scale that has been validated and used extensively as a key endpoint in studies in patients with narcolepsy to measure excessive daytime sleepiness (EDS). The ESS provides individuals with 8 different situations of daily life and asks them how likely they are to fall asleep in those situations (scored 0 to 3) and to try to imagine their likelihood of dozing even if they have not actually been in the identical situation; the scores are summed to give an overall score of 0 to 24. Higher scores indicate stronger subjective daytime sleepiness, and scores below 10 are considered to be within the reference range.\nIn certain aspects, the ESS is administered to assess sleep propensity on selected days indicated in the Schedule of Activities for the trial. Participants are asked to evaluate their subjective sleepiness based on recalling their most recent daily life experiences.\nRandomization was stratified by region. Starting on the morning of Day 1, the study drug was administered at approximately the same time each day for 8 or 12 weeks. […]"}}}
{"smiles": "CCS(=O)(=O)N[C@@H]1[C@H](Cc2cccc(-c3cc(F)cc(F)c3)c2F)N(C(=O)C(C)(C)O)CC1(F)F", "note": "[Compound A, N-{(2S,3R)-4,4-difluoro-1-(2-hydroxy-2-methylpropanoyl)-2-[(2,3′,5′-trifluoro[1,1′-biphenyl]-3-yl)methyl]pyrrolidin-3-yl}ethanesulfonamide]", "values": [{"measurement": "FINI-Everyday Activities, LS mean change from baseline to Week 8", "setting": "[1]", "value": "−41.4 to −54.5"}, {"measurement": "FINI-Everyday Responsibilities, LS mean change from baseline to Week 8", "setting": "[1]", "value": "−35.0 to −53.7"}, {"measurement": "FINI-Social Activities, LS mean change from baseline to Week 8", "setting": "[1]", "value": "−29.9 to −43.1"}, {"measurement": "SF-36 summary scores, change from baseline versus placebo", "setting": "[2]; all Compound A doses (FIG. 22)", "value": "Statistically significant improvements"}, {"measurement": "EQ-5D (index score and VAS), change from baseline versus placebo", "setting": "[2]; all Compound A doses (FIG. 23)", "value": "Statistically significant improvements"}, {"measurement": "Change from baseline to Week 8 in ESS versus placebo", "setting": "[3]; all dose groups, adjusted for multiple comparisons", "value": "statistically significant changes"}, {"measurement": "Participants with ESS≤10", "setting": "[3]; weeks 4 and 8 (FIG. 4)", "value": "Most participants achieved ESS total score≤10"}]}
